We go through nine compounds from paper PMC9490060, “Synthesis and evaluation of anticancer activity of quillaic acid derivatives: A cell cycle arrest and apoptosis inducer through NF-κB and MAPK pathways” (Frontiers in Chemistry, 2022).

The subject of data set [1] is HepG2 (human hepatocellular carcinoma cell line). The data set is described as follows: MTT anti-proliferative assay, HepG2. The data set is classed as cell-based. The conditions noted are these: Homo sapiens, HepG2, 48 h incubation, means ± SD, n = 3. An excerpt:
(§1) The anti-proliferative activities against five human cancer cell lines, including HCT116 (human colorectal cancer cell line), MCF-7 (human breast cancer cell line), SW620 (human colorectal cancer cell line), BEL7402 (human hepatocellular carcinoma cell line), and HepG2 (human hepatocellular carcinoma cell line) were established for all the target compounds using the MTT assay.
(§2) The propidium iodide (PI) and Annexin V-FITC apoptosis detection kit were purchased from Invitrogen (Eugene, OR, United States). 3-(4,5-Dimethylthiazol-2-yl)-2,5-diphenyl-2H-tetrazolium bromide (MTT) was purchased from Sigma-Aldrich Co. (St. Louis, MO, United States). All human cell lines were used in this study, colorectal cancer cell HCT116, colorectal cancer cell SW620, breast cancer cell MCF-7, liver hepatocellular carcinoma cell BEL7402, liver hepatocellular carcinoma HepG2 and normal liver cell L02 were initially purchased from American Type Culture Collection (ATCC, Manassas, VA, United States). RPMI-1640 media, Dulbecco’s modified Eagle’s medium (DMEM), and foetal bovine serum (FBS) were provided from Gibco Company (Grand Island, NY, United States). Cell line MCF-7 and HepG2 were cultivated in DMEM containing 10% (v/v) heat-inactivated FBS, 100 units/ml penicillin and […] streptomycin (Grand Island, NY, United States). Cell lines HCT116, BEL7402, SW620, and L02 were cultivated in RPMI 1640 medium containing 10% (v/v) heat-inactivated FBS, 100 units/ml penicillin, and […] streptomycin. The cells were incubated at 37°C under a 5% CO2 and 90% relative humidity (RH) atmosphere.
(§3) Stock solutions were prepared by diluting target compounds in DMSO at concentrations (1.25, 2.5, 5, and 10 mM). The stock solution was then diluted (1.25, 2.5, 5, and 10 μM) with culture medium, and the concentration of DMSO was controlled not to exceed 0.1%.
(§4) Place the cells in a 96-well plate at an appropriate density to ensure exponential growth (1 × 10^4–1.2×10^4 cells per well) throughout the experiment, and then allow the cells to adhere for 24 h. The cells were then treated with continuous concentrations of each compound (1.25, 2.5, 5, and 10 μM) for 48 h. After 48 h of incubation, 15 μl of MTT solution was added to each well, and the final concentration was 2 mg/ml. Then incubate for another 4 h. After incubation, remove the MTT solution and add […] of DMSO to each well for staining. Shake vigorously for 10 min at room temperature to ensure complete dissolution. The optical density (OD) was read on a microplate reader (ELx 800, BioTek, Highland Park, Winooski, VT, United States) with a wavelength of 492 nm, and then the data was analyzed.
A general note: Tetrazolium dyes change colour on reduction, which living cells bring about.

For data set [2], the system named is BEL7402 (human hepatocellular carcinoma cell line). The data set is described as follows: MTT anti-proliferative assay, BEL7402. It is filed as cell-based. The conditions noted are these: Homo sapiens, Bel-7402, 48 h incubation, means ± SD, n = 3.
Source text: as §1, §2, §3, §4

Data set [3] relates to SW620 (human colorectal cancer cell line). The data set is described as follows: MTT anti-proliferative assay, SW620. It is filed as cell-based. As to conditions: Homo sapiens, SW-620, 48 h incubation, means ± SD, n = 3.
Source text: as §1, §2, §3, §4

For data set [4], the system named is MCF-7 (human breast cancer cell line). The data set is described as follows: MTT anti-proliferative assay, MCF-7. It is filed as cell-based. As to conditions: Homo sapiens, MCF7, 48 h incubation, means ± SD, n = 3.
Source text: as §1, §2, §3, §4

The subject of data set [5] is HCT116 (human colorectal cancer cell line). The data set is described as follows: MTT anti-proliferative assay, HCT116. The data set is classed as cell-based. The conditions noted are these: Homo sapiens, HCT-116, 48 h incubation, means ± SD, n = 3.
Source text: as §1, §2, §3, §4

In the case of `CC1(C)CC[C@]2(C(=O)OCc3nnc(-c4ccc([N+](=O)[O-])cc4)o3)[C@H](O)C[C@]3(C)C(=CC[C@@H]4[C@@]5(C)CC[C@H](O)[C@@](C)(C=O)[C@@H]5CC[C@]43C)[C@@H]2C1` [Compound B6, (5-(4-nitrophenyl)-1,3,4-oxadiazol-2-yl)methyl (4aR,5R,6aS,6bR,8aR,9S,10S,12aR,12bR,14bS)-9-formyl-5,10-dihydroxy-2,2,6a,6b,9,12a-hexamethyl-1,3,4,5,6,6a,6b,7,8,8a,9,10,11,12,12a,12b,13,14b-octadecahydropicene-4a (2H)-carboxylate], the melting point (in general, the temperature of the solid-liquid transition) lay within 140 to 142 °C. The IC50 (as a rule, the point on the concentration scale where inhibition reaches its midpoint) in data set [1] is greater than 10 µM. Also, the IC50 in data set [2] is greater than 10 µM. In data set [3], this compound showed an IC50 greater than 10 µM. The IC50 in data set [4] was greater than 10 µM. Also, in data set [5], the IC50 stood at 3.65 ± 1.22 µM.

Turning to `COc1ccc(-n2cnn(CCOC(=O)[C@]34CCC(C)(C)C[C@H]3C3=CC[C@@H]5[C@@]6(C)CC[C@H](O)[C@@](C)(C=O)[C@@H]6CC[C@@]5(C)[C@]3(C)C[C@H]4O)c2=O)cc1` [Compound C5, 2-(4-(4-methoxyphenyl)-5-oxo-4,5-dihydro-1H-1,2,4-triazol-1-yl)ethyl (4aR,5R,6aS,6bR,8aR,9S,10S,12aR,12bR,14bS)-9-formyl-5,10-dihydroxy-2,2,6a,6b,9,12a-hexamethyl-1,3,4,5,6,6a,6b,7,8,8a,9,10,11,12,12a,12b,13,14b-octadecahydropicene-4a (2H)-carboxylate], the melting point is 186 to 188 °C. The same compound registered an IC50 in data set [1] greater than 10 µM. Moreover, the IC50 in data set [2] was greater than 10 µM. The IC50 in data set [3] is 7.25 ± 1.72 µM. This compound yielded an IC50 in data set [4] greater than 10 µM. In addition, in data set [5], the midpoint of inhibition, the IC50, lay at 3.21 ± 1.07 µM.

The compound `CC1(C)CC[C@]2(C(=O)OCc3cn(-c4ccc(Br)cc4)nn3)[C@H](O)C[C@]3(C)C(=CC[C@@H]4[C@@]5(C)CC[C@H](O)[C@@](C)(C=O)[C@@H]5CC[C@]43C)[C@@H]2C1` [Compound A5, (1-(4-bromophenyl)-1H-1,2,3-triazol-4-yl)methyl (4aR,5R,6aS,6bR,8aR,9S,10S,12aR,12bR,14bS)-9-formyl-5,10-dihydroxy-2,2,6a,6b,9,12a-hexamethyl-1,3,4,5,6,6a,6b,7,8,8a,9,10,11,12,12a,12b,13,14b-octadecahydropicene-4a (2H)-carboxylate] registered a melting point of 190 to 192 °C. Moreover, in data set [1], the half-inhibitory concentration (IC50) was greater than 10 µM. In data set [2], this compound had an IC50 greater than 10 µM. This compound displayed an IC50 in data set [3] greater than 10 µM. In data set [4], this compound gave a half-inhibitory concentration (IC50) greater than 10 µM. The compound also returned a half-maximal inhibitory concentration (IC50) in data set [5] greater than 10 µM.

`CC1(C)CC[C@]2(C(=O)OCc3cn(-c4ccc(Cl)c(Cl)c4)nn3)[C@H](O)C[C@]3(C)C(=CC[C@@H]4[C@@]5(C)CC[C@H](O)[C@@](C)(C=O)[C@@H]5CC[C@]43C)[C@@H]2C1` [Compound A4, (1-(3,4-dichlorophenyl)-1H-1,2,3-triazol-4-yl)methyl (4aR,5R,6aS,6bR,8aR,9S,10S,12aR,12bR,14bS)-9-formyl-5,10-dihydroxy-2,2,6a,6b,9,12a-hexamethyl-1,3,4,5,6,6a,6b,7,8,8a,9,10,11,12,12a,12b,13,14b-octadecahydropicene-4a (2H)-carboxylate] showed a melting point of 205 to 206 °C. In data set [1], the half-maximal inhibitory concentration (IC50) was greater than 10 µM. Further, the half-maximal inhibitory concentration (IC50) in data set [2] was greater than 10 µM. The IC50 in data set [3] was greater than 10 µM. In data set [4], this compound returned a 50% inhibitory concentration (IC50) greater than 10 µM. This compound also had a half-maximal inhibitory concentration (IC50) in data set [5] greater than 10 µM.

The compound `CC1(C)CC[C@]2(C(=O)OCc3cn(-c4ccc([N+](=O)[O-])cc4)nn3)[C@H](O)C[C@]3(C)C(=CC[C@@H]4[C@@]5(C)CC[C@H](O)[C@@](C)(C=O)[C@@H]5CC[C@]43C)[C@@H]2C1` [Compound A10, (1-(4-nitrophenyl)-1H-1,2,3-triazol-4-yl)methyl (4aR,5R,6aS,6bR,8aR,9S,10S,12aR,12bR,14bS)-9-formyl-5,10-dihydroxy-2,2,6a,6b,9,12a-hexamethyl-1,3,4,5,6,6a,6b,7,8,8a,9,10,11,12,12a,12b,13,14b-octadecahydropicene-4a (2H)-carboxylate] showed a melting point of 193 to 194 °C. The IC50 in data set [1] was greater than 10 µM. In data set [2], this compound had a concentration for half-maximal inhibition (IC50) greater than 10 µM. In addition, in data set [3], the IC50 is greater than 10 µM. The same compound yielded an IC50 in data set [4] greater than 10 µM. This compound showed an IC50 in data set [5] greater than 10 µM.

`COc1ccc(-n2cc(COC(=O)[C@]34CCC(C)(C)C[C@H]3C3=CC[C@@H]5[C@@]6(C)CC[C@H](O)[C@@](C)(C=O)[C@@H]6CC[C@@]5(C)[C@]3(C)C[C@H]4O)nn2)cc1` [Compound A6, (1-(4-methoxyphenyl)-1H-1,2,3-triazol-4-yl)methyl (4aR,5R,6aS,6bR,8aR,9S,10S,12aR,12bR,14bS)-9-formyl-5,10-dihydroxy-2,2,6a,6b,9,12a-hexamethyl-1,3,4,5,6,6a,6b,7,8,8a,9,10,11,12,12a,12b,13,14b-octadecahydropicene-4a (2H)-carboxylate]: the melting point is 192 to 193 °C. In data set [1], this compound yielded an IC50 greater than 10 µM. This compound also had a half-inhibitory concentration (IC50) in data set [2] greater than 10 µM. In data set [3], this compound gave an IC50 greater than 10 µM. For the same compound, the IC50 in data set [4] was greater than 10 µM. In data set [5], this compound returned an IC50 greater than 10 µM.

Compound `CC1(C)CC[C@]2(C(=O)OCCn3ncn(-c4ccc(Cl)cc4)c3=O)[C@H](O)C[C@]3(C)C(=CC[C@@H]4[C@@]5(C)CC[C@H](O)[C@@](C)(C=O)[C@@H]5CC[C@]43C)[C@@H]2C1` [Compound C3, 2-(4-(4-chlorophenyl)-5-oxo-4,5-dihydro-1H-1,2,4-triazol-1-yl)ethyl (4aR,5R,6aS,6bR,8aR,9S,10S,12aR,12bR,14bS)-9-formyl-5,10-dihydroxy-2,2,6a,6b,9,12a-hexamethyl-1,3,4,5,6,6a,6b,7,8,8a,9,10,11,12,12a,12b,13,14b-octadecahydropicene-4a (2H)-carboxylate] had a melting point of 166 to 168 °C. In data set [1], this compound yielded an IC50 greater than 10 µM. This compound yielded an IC50 in data set [2] greater than 10 µM. The compound further returned an IC50 in data set [3] of 7.11 ± 1.54 µM. This compound had an IC50 in data set [4] greater than 10 µM. For the same compound, the IC50 in data set [5] amounted to 3.11 ± 1.02 µM.

`CC1(C)CC[C@]2(C(=O)OCc3cn(-c4ccc(F)cc4)nn3)[C@H](O)C[C@]3(C)C(=CC[C@@H]4[C@@]5(C)CC[C@H](O)[C@@](C)(C=O)[C@@H]5CC[C@]43C)[C@@H]2C1` [Compound A2, (1-(4-fluorophenyl)-1H-1,2,3-triazol-4-yl)methyl (4aR,5R,6aS,6bR,8aR,9S,10S,12aR,12bR,14bS)-9-formyl-5,10-dihydroxy-2,2,6a,6b,9,12a-hexamethyl-1,3,4,5,6,6a,6b,7,8,8a,9,10,11,12,12a,12b,13,14b-octadecahydropicene-4a (2H)-carboxylate] showed a melting point of 171 to 172 °C. In data set [1], this compound showed an IC50 greater than 10 µM. This compound also gave an IC50 in data set [2] of 3.18 ± 1.02 µM. Besides, in data set [3], half-maximal inhibition (IC50) was put at 8.78 ± 1.77 µM. The compound further registered an IC50 in data set [4] greater than 10 µM. Also, the IC50 in data set [5] amounted to 3.04 ± 0.92 µM.

`Cc1ccc(-n2cc(COC(=O)[C@]34CCC(C)(C)C[C@H]3C3=CC[C@@H]5[C@@]6(C)CC[C@H](O)[C@@](C)(C=O)[C@@H]6CC[C@@]5(C)[C@]3(C)C[C@H]4O)nn2)cc1` [Compound A9, (1-(p-tolyl)-1H-1,2,3-triazol-4-yl)methyl (4aR,5R,6aS,6bR,8aR,9S,10S,12aR,12bR,14bS)-9-formyl-5,10-dihydroxy-2,2,6a,6b,9,12a-hexamethyl-1,3,4,5,6,6a,6b,7,8,8a,9,10,11,12,12a,12b,13,14b-octadecahydropicene-4a (2H)-carboxylate] showed a melting point of 204 to 206 °C. Further, the IC50 in data set [1] was greater than 10 µM. In addition, the 50% inhibitory concentration (IC50) in data set [2] is greater than 10 µM. The compound also returned an IC50 in data set [3] greater than 10 µM. The compound further gave an IC50 in data set [4] greater than 10 µM. In addition, the IC50 in data set [5] is greater than 10 µM.
